Holding throughout (assay): DTP human tumour cell line panel, 48 h
In assay [1] the test system is HT29 colon.
Assay [2] has as its system BT-549 breast.
The subject of assay [3] is UO-31 renal.
Assay [4] has as its system U251 CNS.
Assay [5] has as its system M14 melanoma.
Assay [6] relates to RPMI-8226 leukemia.
Assay [7] relates to HS 578T breast.
Assay [8] has as its system LXFL 529 NSCLC.
Assay [9] relates to KM20L2 colon.
Assay [10] has as its system DMS 114 small cell lung.

Molecules are shown by their SMILES. Where “and” joins values, the source holds several entries; their conditions need not be identical. Identical values can stand only once.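 Values below derive from 48-hour exposures of cells grown in 96-well plates, with endpoints linearly interpolated between the two concentrations bracketing the appropriate inhibition level. Here, GI50 denotes the concentration required for 50% inhibition of growth. TGI marks complete inhibition of growth.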

For the molecule `Nc1ncnc2c1N=C(c1ccc3c(c1)OCO3)CC(c1ccc([N+](=O)[O-])cc1)N2` (stereo not given), the GI50 in assay [1] was 63 µM; in assay [2], 1.68 µM; in [3], 18.1 µM; in [4], 49.3 µM; in assay [5], greater than 100 µM; in assay [6], 0.194 µM. Further, the GI50 in assay [7] is 9.18 µM. The TGI in [1] is greater than 100 µM; in assay [2], 53.1 µM; in assay [3], greater than 100 µM; in assay [4] it was greater than 100 µM; in assay [5], greater than 100 µM; in [6] it was 49 µM. Moreover, in assay [7], the TGI is greater than 100 µM.

Take `O=C1CCCCCCCCCCC1CN1CCCC1` (stereo not given): the TGI is 77.1 µM in assay [1]; greater than 100 µM in [2]; greater than 100 µM in assay [3]; greater than 100 µM in [4]; 47.2 µM in assay [5]; greater than 100 µM in assay [6]. In assay [7], this molecule displayed a TGI of 84.7 µM.

In the case of `Cn1ncnc1[C@H]1c2n[nH]c(=O)c3cc(F)cc(c23)N[C@@H]1c1ccc(F)cc1`, the GI50 in assay [1] is greater than 100 µM; in [2] it was greater than 87.1 µM; in [3], 6.5 µM; in [4] it was 1.65 µM; in assay [5], 4.19 µM; in assay [6] it was greater than 100 µM. In addition, the GI50 in assay [7] was greater than 100 µM. Besides, the TGI in [1], in assay [2], in assay [3], in assay [4], in [5] and in assay [6] was greater than 100 µM in each case. This molecule gave a TGI in assay [7] greater than 100 µM.

As for `CC1=C(C(=O)Nc2ccc3n[nH]c(C)c3c2)C(c2ccc(C(F)(F)F)cc2)CC(=O)N1` (stereo not given), the GI50 is greater than 25 µM in assay [1]; 6.96 µM in assay [2]; 3.91 µM in assay [3]; greater than 25 µM in [4]; greater than 25 µM in assay [5]; greater than 25 µM in assay [6]. In assay [7], the GI50 was 0.305 µM. Further, the TGI in [1], in assay [2], in assay [3], in assay [4], in assay [5] and in assay [6] was greater than 25 µM throughout. In addition, the TGI in assay [7] came out at 19.5 µM.

Consider `C=CCN=C(N/N=C/c1ccc([N+](=O)[O-])o1)NS(=O)(=O)c1cc(C(=O)Nc2ccc(Cl)cc2)c(Cl)cc1SC`, for which the GI50 was 5.81 µM in assay [1]; 5.05 µM in assay [2]; greater than 49.9 µM in [3]; 3.93 µM in [4]; 3.09 µM in assay [5]; 0.504 µM in [6]. For the same molecule, the GI50 in assay [7] was greater than 41.9 µM. The total growth inhibition concentration (TGI) is greater than 100 µM in assay [1]; greater than 79.7 µM in assay [2]; greater than 100 µM in assay [3]; greater than 100 µM in [4]; greater than 21.6 µM in [5]; greater than 100 µM in [7].

With `C[C@H]1CC[C@@]2(NC1)O[C@H]1C[C@H]3[C@@H]4CC[C@H]5C[C@@H](O)CC[C@]5(C)[C@H]4CC[C@]3(C)[C@H]1[C@@H]2C`, the GI50 in assay [1] is 9.75 µM; in assay [2], 23.8 µM; in [3], 14.2 µM; in assay [4], 11.9 µM; in assay [5] it was 18.1 µM; in assay [6], 7.82 µM. Besides, the GI50 in assay [7] is 21.8 µM. For the same molecule, the TGI in assay [1] is 50 µM and > 100 µM; in assay [2] it was 50 µM and > 100 µM; in assay [3] it was 44.6 µM and > 100 µM; in assay [4], 33.6 µM; in [5], 50 µM and > 100 µM; in assay [6], 31.4 µM and > 100 µM. In assay [7], the TGI is 50 µM and > 100 µM.

Regarding `COc1cc(OC)c(C/C=C/c2ccccc2)cc1O`, the TGI in assay [1] is 31.5 µM; in assay [2], 29.6 µM; in assay [3] it was 29.6 µM; in assay [4] it was 30.4 µM; in assay [5], 38 µM; in assay [6], 38 µM. In assay [7], this molecule came in with a TGI of 47.3 µM.

`O=C1OCC2=C1C(c1cccc(Cl)c1)c1cc3c(cc1N2CCO)OCCO3` (stereo not given): the GI50 in assay [1] was 0.0402 µM; in assay [2] it was 0.147 µM; in [3], 0.0736 µM; in assay [4], 0.0542 µM; in assay [5] it was 0.0493 µM; in assay [6] it was 0.129 µM. Further, in [7], the concentration for 50% growth inhibition (GI50) is 0.0747 µM. For the same molecule, the TGI in assay [1] was 0.282 µM; in assay [2] it was 11.8 µM; in assay [3], greater than 69.4 µM; in assay [4] it was 7.14 µM; in assay [5], 1.57 µM; in [6], 19.2 µM. This molecule showed a TGI in assay [7] greater than 78.2 µM.

For `c1cncc(C2N3CCCCC3[C@@H]3c4[nH]c5ccccc5c4CCN23)c1` (stereo not given in full), the TGI in [1], in [3], in assay [4], in [8], in assay [5] and in assay [6] was greater than 100 µM in each case. In [9], this molecule had a TGI greater than 100 µM.

Consider `NC(=O)N/N=C1/CCC(O)CC1CC(=O)O` (stereo not given), for which the TGI in assay [1], in assay [2], in assay [3], in assay [4], in [5] and in assay [6] was greater than 100 µM in each case. Further, the TGI in assay [7] was greater than 100 µM.

On to `COC1CC(O[C@H]2CC[C@@]3(C)[C@H](CC[C@@H]4[C@@H]3CC[C@]3(C)[C@@H](C5=CC(=O)OC5)[C@@H](OC(C)=O)C[C@]43O)C2)OC(C)C1O` (stereo not given in full), for which the GI50 in assay [1], in [2], in assay [3], in [4], in assay [5] and in [6] was less than 0.01 µM in each case. Besides, the GI50 in [7] was less than 0.01 µM. For the same molecule, the total growth inhibition concentration (TGI) in assay [1] was less than 0.01 µM; in [2], less than 0.01 µM; in assay [3], less than 0.01 µM; in assay [4], less than 0.01 µM; in assay [5] it was less than 0.0106 µM; in [7] it was less than 0.0145 µM.

With `Cc1c(C(=O)Nc2ccccc2)sc2ncn(Cc3cccc(Cl)c3)c(=O)c12`, the GI50 in assay [1] was 78.4 µM; in assay [2], 11.3 µM; in [3] it was 13 µM; in assay [4], 34 µM; in assay [5], 43.6 µM; in [6], 10.4 µM. The GI50 in [7] is 42.6 µM. Besides, the TGI was greater than 100 µM in assay [1]; 27.6 µM in assay [2]; 39.7 µM in assay [3]; greater than 100 µM in assay [4]; greater than 100 µM in assay [5]; greater than 100 µM in assay [6]. In [7], this molecule registered a TGI greater than 100 µM.

Regarding `COc1ccc2c(c1)C(=O)c1ccc(OC)cc1C2=S`, the TGI in assay [1] is greater than 100 µM; in assay [3] it was greater than 100 µM; in assay [10], greater than 100 µM; in assay [4], 61.7 µM; in assay [5], greater than 100 µM; in assay [6] it was greater than 100 µM. The same molecule yielded a TGI in [9] greater than 100 µM.

One may read the GI50 as the concentration giving 50% growth inhibition. One may read the TGI as the concentration at which net growth stops. Low readings indicate greater sensitivity of the cells, high ones lower sensitivity of the cells.

Source of the values: PubChem BioAssay (NCI).
